Experimental data taken from US6750228B1, “Aromatic sulfone hydroxamic acid metalloprotease inhibitor” (priority 1997, dated 2004).
pIC50: −log10 of the molar value. Counter-ions that a name gives are not always drawn. Like-named read-outs stand apart in the source and are kept apart here.

Tests used:
Assay in all cases: biochemical
MMP-1 = biological target: T1, MMP-1 (Homo sapiens, UniProt P03956); conditions: recombinant human MMP-1, MCA peptide substrate 4 μM, pH 7.5, room temperature; read-out: MMP-1 IC50
T1 construct: made in house; host or cells: transfected HT-1080 cells (provided by Dr. Harold Welgus, Washington University)
T1 sequence (P03956 100-469): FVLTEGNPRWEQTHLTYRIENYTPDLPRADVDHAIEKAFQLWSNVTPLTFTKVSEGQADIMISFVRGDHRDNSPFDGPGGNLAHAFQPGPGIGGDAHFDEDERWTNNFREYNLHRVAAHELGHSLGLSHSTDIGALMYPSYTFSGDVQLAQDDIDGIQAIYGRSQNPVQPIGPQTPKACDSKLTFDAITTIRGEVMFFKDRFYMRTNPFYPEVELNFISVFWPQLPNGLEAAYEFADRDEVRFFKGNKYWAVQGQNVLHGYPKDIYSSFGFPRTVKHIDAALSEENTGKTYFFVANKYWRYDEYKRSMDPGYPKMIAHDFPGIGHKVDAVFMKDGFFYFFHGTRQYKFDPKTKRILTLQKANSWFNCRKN
Summary of the method: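 APMA- or trypsin-activated human MMPs (MMP-1 from transfected HT-1080 cells, MMP-2 from transfected cells) preincubated with inhibitor in 1% DMSO at room temperature, then 4 μM MCA-Pro-Leu-Gly-Leu-Dpa-Ala-Arg-NH2 added in Tris/NaCl/CaCl2 buffer pH 7.5. IC50 from fluorescence reduction versus inhibitor concentration.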

MMP-13 = biological target: T2, MMP-13 (Homo sapiens, UniProt P45452); conditions: recombinant human MMP-13, MCA peptide substrate 4 μM, pH 7.5, room temperature; for pIC50: read-out: MMP-13 IC50
T2 construct: made in house; host or cells: baculovirus / insect cells
Summary of the method: (§1)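 APMA- or trypsin-activated enzymes were preincubated with inhibitor for 5 min at room temperature, then the fluorogenic substrate MCA-Pro-Leu-Gly-Leu-Dpa-Ala-Arg-NH2 was added to a final 4 μM.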

MMP-2 = biological target: T3, MMP-2 (Homo sapiens, UniProt P08253); conditions: for pIC50: recombinant human MMP-2, MCA peptide substrate 4 μM, pH 7.5, room temperature, read-out: MMP-2 IC50
T3 construct: made in house; provided by Dr. Gregory Goldberg, Washington University
T3 sequence (P08253 110-660): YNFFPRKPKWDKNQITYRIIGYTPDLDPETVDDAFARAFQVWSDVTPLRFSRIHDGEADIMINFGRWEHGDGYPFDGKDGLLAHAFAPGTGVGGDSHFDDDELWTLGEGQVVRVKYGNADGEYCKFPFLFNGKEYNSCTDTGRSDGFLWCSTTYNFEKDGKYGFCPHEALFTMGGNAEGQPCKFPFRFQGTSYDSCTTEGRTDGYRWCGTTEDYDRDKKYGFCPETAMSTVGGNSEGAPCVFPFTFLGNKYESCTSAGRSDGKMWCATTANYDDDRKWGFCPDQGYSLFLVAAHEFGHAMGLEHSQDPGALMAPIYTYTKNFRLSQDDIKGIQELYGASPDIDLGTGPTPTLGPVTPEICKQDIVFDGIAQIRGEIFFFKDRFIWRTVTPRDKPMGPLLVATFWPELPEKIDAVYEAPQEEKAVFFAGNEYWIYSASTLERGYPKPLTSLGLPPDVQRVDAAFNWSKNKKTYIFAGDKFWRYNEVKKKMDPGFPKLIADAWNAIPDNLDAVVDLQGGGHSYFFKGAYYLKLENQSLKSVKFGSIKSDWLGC
Summary of the method: as §1

COCCN1CCC(C(=O)NO)(S(=O)(=O)c2ccc(N3CCC(C(=O)Nc4ccccc4)CC3)cc2)CC1 [Example 236, N-Hydroxy-1-(2-methoxyethyl)-4-[[4-[4-[(phenylamino)carbonyl]-1-piperidinyl]phenyl]-sulfonyl]-4-piperidinecarboxamide Monohydrochloride)]
pIC50 (MMP-1): < 5.00 | IC50 (MMP-13; MMP-13 IC50 (nM)): 9 nM | IC50 (MMP-2; MMP-2 IC50 (nM)): 400 nM

CC1CC(C)CN(C(=O)C2CCN(c3ccc(S(=O)(=O)C4(C(=O)NO)CCN(C(=O)CN5CCN(C)CC5)CC4)cc3)CC2)C1 (stereo not drawn) [Example 288]
pIC50 (MMP-1): < 5.00 | pIC50 (MMP-13): 7.46 | pIC50 (MMP-2): < 5.00

COc1cccc(CO[C@@H]2CCN(c3ccc(S(=O)(=O)C4(C(=O)NO)CCN(C5CC5)CC4)cc3)C2)c1 [Example 398]
pIC50 (MMP-1): < 5.00 | pIC50 (MMP-13): 8.15 | pIC50 (MMP-2): 7.15

CCOC(=O)C1CCN(CC(=O)N2CCC(C(=O)NO)(S(=O)(=O)c3ccc(N4CCC(C(=O)N5CC(C)CC(C)C5)CC4)cc3)CC2)CC1 (stereo not drawn) [Example 313]
pIC50 (MMP-1): < 5.00 | pIC50 (MMP-13): 7.11 | pIC50 (MMP-2): < 5.00

O=C(CNCC(F)(F)F)N1CCC(C(=O)NO)(S(=O)(=O)c2ccc(Oc3ccc(C(F)(F)F)cc3)cc2)CC1 [Example 322]
pIC50 (MMP-1): < 5.00 | pIC50 (MMP-13): 9.52 | pIC50 (MMP-2): 9.52

O=C(Nc1ccc(Oc2ccccc2)cc1)OC1CCN(c2ccc(S(=O)(=O)C3(C(=O)NO)CCOCC3)cc2)CC1 [Example 519]
pIC50 (MMP-1): < 5.00 | pIC50 (MMP-13): 7.34 | pIC50 (MMP-2): 5.89

CCCCC(=O)C1CCN(c2ccc(S(=O)(=O)C3(C(=O)NO)CCOCC3)cc2)CC1 [Example 757]
pIC50 (MMP-1): < 5.00 | pIC50 (MMP-13): 8.48 | pIC50 (MMP-2): 7.54

COCc1ccc(COC2CCN(c3ccc(S(=O)(=O)C4(C(=O)NO)CCOCC4)cc3)CC2)cc1 [Example 522]
pIC50 (MMP-1): < 5.00 | pIC50 (MMP-13): 8.62 | pIC50 (MMP-2): 7.03

CN(C)c1ccc(C(=O)C2CCN(c3ccc(S(=O)(=O)C4(C(=O)NO)CCOCC4)cc3)CC2)cc1 [Example 784]
pIC50 (MMP-1): < 5.00 | pIC50 (MMP-13): 8.22 | pIC50 (MMP-2): 5.35

O=C(NO)C1(S(=O)(=O)c2ccc(N3CCC(O)CC3)cc2)CCOCC1 [Example 564]
pIC50 (MMP-1): < 5.00 | pIC50 (MMP-13): 6.82 | pIC50 (MMP-2): 6.26

O=C(c1cccc(F)c1)C1CCN(c2ccc(S(=O)(=O)C3(C(=O)NO)CCOCC3)cc2)CC1 [Example 728]
pIC50 (MMP-1): < 5.00 | pIC50 (MMP-13): 8.03 | pIC50 (MMP-2): 6.97

O=C(NO)C1(S(=O)(=O)c2ccc(N3CCC(Oc4ccc(C(F)(F)F)cc4[N+](=O)[O-])CC3)cc2)CCOCC1 [Example 571]
pIC50 (MMP-1): < 5.00 | pIC50 (MMP-13): 7.54 | pIC50 (MMP-2): 6.85

CC1CC(C)CN(C(=O)C2CCN(c3ccc(S(=O)(=O)C4(C(=O)NO)CCN(C(=O)CN5CCCC5CO)CC4)cc3)CC2)C1 (stereo not drawn) [Example 297]
pIC50 (MMP-1): < 5.00 | pIC50 (MMP-13): 7.46 | pIC50 (MMP-2): < 5.00

COCCN(CCOC)CC(=O)N1CCC(C(=O)NO)(S(=O)(=O)c2ccc(Oc3ccc(C(F)(F)F)cc3)cc2)CC1 [Example 327]
pIC50 (MMP-1): < 5.00 | pIC50 (MMP-13): 9.05 | pIC50 (MMP-2): 9.52

Tetrahydro-N-hydroxy-4-[[4-(pentaflourooxy)phenyl]sulfonyl]-2H-thiopyran-4-carboxamide [Example 224]
pIC50 (MMP-1): 5.35 | pIC50 (MMP-13): > 10.00 | pIC50 (MMP-2): > 10.00

O=C(Nc1ccccc1C(F)(F)F)N1CCC(C(=O)NO)(S(=O)(=O)c2ccc(Oc3ccc(OC(F)(F)F)cc3)cc2)CC1 [Example 364]
pIC50 (MMP-1): < 5.00 | pIC50 (MMP-13): 9.00 | pIC50 (MMP-2): 9.70

O=C(NO)C1(S(=O)(=O)c2ccc(N3CC=CCC3)cc2)CCOCC1 [Example 210]
pIC50 (MMP-1): 5.40 | pIC50 (MMP-13): 8.27 | pIC50 (MMP-2): 8.35

CCC(C)CCOCc1ccc(COC2CCN(c3ccc(S(=O)(=O)C4(C(=O)NO)CCOCC4)cc3)CC2)cc1 (stereo not drawn) [Example 603]
pIC50 (MMP-1): < 5.00 | pIC50 (MMP-13): 7.80 | pIC50 (MMP-2): 5.64

CS(=O)(=O)N1CCC(C2CCN(c3ccc(S(=O)(=O)C4(C(=O)NO)CCOCC4)cc3)CC2)CC1 [Example 793]
pIC50 (MMP-1): < 5.00 | pIC50 (MMP-13): 8.40 | pIC50 (MMP-2): 7.63
